Experiments:
Haemonchus contortus L3 = assay: microbe, parasite or virus in culture; assay type: cell-based; details: Haemonchus contortus, 96 h, read-out: HcL3 Minimal Effective Concentration (MEC)
D. immitis microfilariae = assay: Dirofilaria immitis, microfilariae (DiMF) in vitro motility assay; assay type: cell-based; details: Dirofilaria immitis, 72 h, read-out: DiMF minimally effective dose (MEC)

## N#Cc1ccc(/C=C/CN2CCc3c(c4ccc(Cl)cc4n3C(=O)NCc3ccnc(Cl)c3)C2)cc1F [Example 208, (E)-7-chloro-N-((2-chloropyridin-4-yl)methyl)-2-(3-(4-cyano-3-fluorophenyl)allyl)-1,2,3,4-tetrahydro-5H-pyrido[4,3-b]indole-5-carboxamide]
Haemonchus contortus L3
  minimal effective concentration: 1.8 µM
D. immitis microfilariae
  minimal effective concentration: > 100 µM

## O=C(NCc1ccnc(Cl)c1)n1c2c(c3ccc(Cl)cc31)CN(C/C=C/c1ccc(F)cc1F)CC2 [Example 209, (E)-7-chloro-N-((2-chloropyridin-4-yl)methyl)-2-(3-(2,4-difluorophenyl)-allyl)-1,2,3,4-tetrahydro-5H-pyrido[4,3-b]indole-5-carboxamide]
Haemonchus contortus L3
  minimal effective concentration: > 100 µM
D. immitis microfilariae
  minimal effective concentration: 33 µM

## O=C(NCc1ccnc(Cl)c1)n1c2c(c3ccc(Cl)cc31)CN(C/C=C/c1ccc(F)c(Cl)c1)CC2 [Example 210, (E)-7-chloro-2-(3-(3-chloro-4-fluorophenyl)allyl)-N-((2-chloropyridin-4-yl)methyl)-1,2,3,4-tetrahydro-5H-pyrido[4,3-b]indole-5-carboxamide]
Haemonchus contortus L3
  minimal effective concentration: 3.3 µM
D. immitis microfilariae
  minimal effective concentration: 10 µM

## N#Cc1ccc(/C=C/CN2CCc3c(c4ccc(Cl)cc4n3C(=O)NCc3ccnc(Cl)c3)C2)cc1 [Example 212, (E)-7-chloro-N-((2-chloropyridin-4-yl)methyl)-2-(3-(4-cyanophenyl)allyl)-1,2,3,4-tetrahydro-5H-pyrido[4,3-b]indole-5-carboxamide]
Haemonchus contortus L3
  minimal effective concentration: 1 µM
D. immitis microfilariae
  minimal effective concentration: > 100 µM

## O=C(NCc1ccnc(Cl)c1)n1c2c(c3ccc(Cl)cc31)CN(C/C=C/c1ccc(Cl)cc1)CC2 [Example 213, (E)-7-chloro-2-(3-(4-chlorophenyl)allyl)-N-((2-chloropyridin-4-yl)methyl)-1,2,3,4-tetrahydro-5H-pyrido[4,3-b]indole-5-carboxamide]
Haemonchus contortus L3
  minimal effective concentration: 0.3 µM
D. immitis microfilariae
  minimal effective concentration: 3.3 µM

## O=C(NCc1ccnc(Cl)c1)n1c2c(c3c(Cl)cccc31)CN(C/C=C/c1ccc(Cl)cc1)CC2 [Example 214, (E)-9-chloro-2-(3-(4-chlorophenyl)allyl)-N-((2-chloropyridin-4-yl)methyl)-1,2,3,4-tetrahydro-5H-pyrido[4,3-b]indole-5-carboxamide]
Haemonchus contortus L3
  minimal effective concentration: 0.5 µM
D. immitis microfilariae
  minimal effective concentration: 18.2 µM

## O=C(NCc1ccnc(Cl)c1)n1c2c(c3ccc(Cl)cc31)CN(C/C=C/c1ccc(Cl)c(Cl)c1)CC2 [Example 215, (E)-7-chloro-N-((2-chloropyridin-4-yl)methyl)-2-(3-(3,4-dichlorophenyl)allyl)-1,2,3,4-tetrahydro-5H-pyrido[4,3-b]indole-5-carboxamide]
Haemonchus contortus L3
  minimal effective concentration: 0.5 µM
D. immitis microfilariae
  minimal effective concentration: 10 µM

## O=C(NCc1ccnc(Cl)c1)n1c2c(c3c(Cl)cccc31)CN(C/C=C/c1ccc(Cl)c(Cl)c1)CC2 [Example 216, (E)-9-chloro-N-((2-chloropyridin-4-yl)methyl)-2-(3-(3,4-dichlorophenyl)allyl)-1,2,3,4-tetrahydro-5H-pyrido[4,3-b]indole-5-carboxamide]
Haemonchus contortus L3
  minimal effective concentration: 1 µM
D. immitis microfilariae
  minimal effective concentration: 18.2 µM

## O=C(NCc1ccnc(Cl)c1)n1c2c(c3ccc(Cl)cc31)CN(C/C=C/c1ccc(F)cc1)CC2 [Example 217, (E)-7-chloro-N-((2-chloropyridin-4-yl)methyl)-2-(3-(4-fluorophenyl)allyl)-1,2,3,4-tetrahydro-5H-pyrido[4,3-b]indole-5-carboxamide]
Haemonchus contortus L3
  minimal effective concentration: 1.8 µM
D. immitis microfilariae
  minimal effective concentration: 3.3 µM

## O=C(NCc1ccnc(Cl)c1)n1c2c(c3c(Cl)cccc31)CN(C/C=C/c1ccc(F)cc1)CC2 [Example 218, (E)-9-chloro-N-((2-chloropyridin-4-yl)methyl)-2-(3-(4-fluorophenyl)allyl)-1,2,3,4-tetrahydro-5H-pyrido[4,3-b]indole-5-carboxamide]
Haemonchus contortus L3
  minimal effective concentration: 1 µM
D. immitis microfilariae
  minimal effective concentration: 10 µM

## COc1ccc(/C=C/CN2CCc3c(c4ccc(Cl)cc4n3C(=O)NCc3ccnc(Cl)c3)C2)cc1 [Example 219, (E)-7-chloro-N-((2-chloropyridin-4-yl)methyl)-2-(3-(4-methoxyphenyl)allyl)-1,2,3,4-tetrahydro-5H-pyrido[4,3-b]indole-5-carboxamide]
Haemonchus contortus L3
  minimal effective concentration: 0.5 µM
D. immitis microfilariae
  minimal effective concentration: 3.3 µM

## COc1ccc(/C=C/CN2CCc3c(c4c(Cl)cccc4n3C(=O)NCc3ccnc(Cl)c3)C2)cc1 [Example 220, (E)-9-chloro-N-((2-chloropyridin-4-yl)methyl)-2-(3-(4-methoxyphenyl)allyl)-1,2,3,4-tetrahydro-5H-pyrido[4,3-b]indole-5-carboxamide]
Haemonchus contortus L3
  minimal effective concentration: 3.3 µM
D. immitis microfilariae
  minimal effective concentration: 10 µM

## O=C(NCc1ccnc(Cl)c1)n1c2c(c3ccc(Cl)cc31)CN(C/C=C/c1ccc(OC(F)(F)F)cc1)CC2 [Example 221, (E)-7-chloro-N-((2-chloropyridin-4-yl)methyl)-2-(3-(4-(trifluoromethoxy)-phenyl)allyl)-1,2,3,4-tetrahydro-5H-pyrido[4,3-b]indole-5-carboxamide]
Haemonchus contortus L3
  minimal effective concentration: > 100 µM
D. immitis microfilariae
  minimal effective concentration: 3.3 µM

## O=C(NCc1ccnc(Cl)c1)n1c2c(c3c(Cl)cccc31)CN(C/C=C/c1ccc(OC(F)(F)F)cc1)CC2 [Example 222, (E)-9-chloro-N-((2-chloropyridin-4-yl)methyl)-2-(3-(4-(trifluoromethoxy)-phenyl)allyl)-1,2,3,4-tetrahydro-5H-pyrido[4,3-b]indole-5-carboxamide]
Haemonchus contortus L3
  minimal effective concentration: > 100 µM
D. immitis microfilariae
  minimal effective concentration: 10 µM

## O=C(NCc1ccnc(Cl)c1)n1c2c(c3ccc(Cl)cc31)CN(C/C=C/c1ccc(C(F)(F)F)cc1)CC2 [Example 223, (E)-7-chloro-N-((2-chloropyridin-4-yl)methyl)-2-(3-(4-(trifluoromethyl)-phenyl)allyl)-1,2,3,4-tetrahydro-5H-pyrido[4,3-b]indole-5-carboxamide]
Haemonchus contortus L3
  minimal effective concentration: 10 µM
D. immitis microfilariae
  minimal effective concentration: 3.3 µM

## O=C(NCc1ccnc(F)c1)n1c2c(c3ccc(Cl)cc31)CN(C/C=C/c1ccc(Cl)c(F)c1)CC2 [Example 224, (E)-7-chloro-2-(3-(4-chloro-3-fluorophenyl)allyl)-N-((2-fluoropyridin-4-yl)methyl)-1,2,3,4-tetrahydro-5H-pyrido[4,3-b]indole-5-carboxamide]
Haemonchus contortus L3
  minimal effective concentration: 1.8 µM
D. immitis microfilariae
  minimal effective concentration: 3.3 µM

## O=C(NCc1ccnc(F)c1)n1c2c(c3ccc(Cl)cc31)CN(C/C=C/c1ccc(F)cc1F)CC2 [Example 226, (E)-7-chloro-2-(3-(2,4-difluorophenyl)allyl)-N-((2-fluoropyridin-4-yl)methyl)-1,2,3,4-tetrahydro-5H-pyrido[4,3-b]indole-5-carboxamide]
Haemonchus contortus L3
  minimal effective concentration: > 100 µM
D. immitis microfilariae
  minimal effective concentration: 1.8 µM

## O=C(NCc1ccnc(F)c1)n1c2c(c3ccc(Cl)cc31)CN(C/C=C/c1ccc(F)c(Cl)c1)CC2 [Example 227, (E)-7-chloro-2-(3-(3-chloro-4-fluorophenyl)allyl)-N-((2-fluoropyridin-4-yl)methyl)-1,2,3,4-tetrahydro-5H-pyrido[4,3-b]indole-5-carboxamide]
Haemonchus contortus L3
  minimal effective concentration: 5.7 µM
D. immitis microfilariae
  minimal effective concentration: 1.8 µM

## O=C(NCc1cnc(Cl)s1)n1c2c(c3c(Cl)cccc31)CN(C/C=C/c1ccc(Cl)cc1)CC2 [Example 231, (E)-9-chloro-2-(3-(4-chlorophenyl)allyl)-N-((2-chlorothiazol-5-yl)methyl)-1,2,3,4-tetrahydro-5H-pyrido[4,3-b]indole-5-carboxamide]
Haemonchus contortus L3
  minimal effective concentration: 3.3 µM
D. immitis microfilariae
  minimal effective concentration: 13.5 µM

## O=C(NCc1ccnc(Cl)c1)n1c2c(c3cc(Cl)ccc31)CN(C/C=C/c1ccc(Cl)c(F)c1)CC2 [Example 232, (E)-8-chloro-2-(3-(4-chloro-3-fluorophenyl)allyl)-N-((2-chloropyridin-4-yl)methyl)-1,2,3,4-tetrahydro-5H-pyrido[4,3-b]indole-5-carboxamide]
Haemonchus contortus L3
  minimal effective concentration: 1 µM
D. immitis microfilariae
  minimal effective concentration: 10 µM

## O=C(NCc1ccnc(Cl)c1)n1c2c(c3cc(Cl)ccc31)CN(C/C=C/c1ccc(Cl)cc1F)CC2 [Example 233, (E)-8-chloro-2-(3-(4-chloro-2-fluorophenyl)allyl)-N-((2-chloropyridin-4-yl)methyl)-1,2,3,4-tetrahydro-5H-pyrido[4,3-b]indole-5-carboxamide]
Haemonchus contortus L3
  minimal effective concentration: 0.01 µM
D. immitis microfilariae
  minimal effective concentration: 1.8 µM

## N#Cc1cc(/C=C/CN2CCc3c(c4cc(Cl)ccc4n3C(=O)NCc3ccnc(Cl)c3)C2)ccc1F [Example 234, (E)-8-chloro-N-((2-chloropyridin-4-yl)methyl)-2-(3-(3-cyano-4-fluorophenyl)allyl)-1,2,3,4-tetrahydro-5H-pyrido[4,3-b]indole-5-carboxamide]
Haemonchus contortus L3
  minimal effective concentration: 0.1 µM
D. immitis microfilariae
  minimal effective concentration: 3.3 µM

## N#Cc1ccc(/C=C/CN2CCc3c(c4cc(Cl)ccc4n3C(=O)NCc3ccnc(Cl)c3)C2)cc1F [Example 235, (E)-8-chloro-N-((2-chloropyridin-4-yl)methyl)-2-(3-(4-cyano-3-fluorophenyl)allyl)-1,2,3,4-tetrahydro-5H-pyrido[4,3-b]indole-5-carboxamide]
Haemonchus contortus L3
  minimal effective concentration: 0.1 µM
D. immitis microfilariae
  minimal effective concentration: > 100 µM

## O=C(NCc1ccnc(Cl)c1)n1c2c(c3cc(Cl)ccc31)CN(C/C=C/c1ccc(F)cc1Cl)CC2 [Example 237, (E)-8-chloro-2-(3-(2-chloro-4-fluorophenyl)allyl)-N-((2-chloropyridin-4-yl)methyl)-1,2,3,4-tetrahydro-5H-pyrido[4,3-b]indole-5-carboxamide]
Haemonchus contortus L3
  minimal effective concentration: 0.03 µM
D. immitis microfilariae
  minimal effective concentration: 1.8 µM

## N#Cc1ccc(/C=C/CN2CCc3c(c4cc(Cl)ccc4n3C(=O)NCc3ccnc(Cl)c3)C2)cc1 [Example 241, (E)-8-chloro-N-((2-chloropyridin-4-yl)methyl)-2-(3-(4-cyanophenyl)allyl)-1,2,3,4-tetrahydro-5H-pyrido[4,3-b]indole-5-carboxamide]
Haemonchus contortus L3
  minimal effective concentration: 0.4 µM
D. immitis microfilariae
  minimal effective concentration: 13.5 µM

Source: patent US10570129B2 (Zoetis Services LLC, priority 2015, dated 2020)
